Source: patent publication US9113629B2, “4-amino-6-(4-substituted-phenyl)-picolinates and 6-amino-2-(4-substituted-phenyl)-pyrimidine-4-carboxylates and their use as herbicides” (DOW AGROSCIENCES LLC, priority 2013, dated 2015)
Read-outs that look alike come from different tables or passages of the source.

What was measured:
[1] = system: Key Grass and Sedge Weeds as well as Grass Crops; test: Post-emergent Test II herbicidal activity (Table 6); assay type: in vivo; conditions: post-emergence, 336 h; for pest or weed control at 70 g/ha: application rate 70 g ai/ha; for pest or weed control at 140 g/ha: application rate 140 g ai/ha
Outline: (§1)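 Test species were raised 7–21 d under greenhouse conditions until reaching the first or second true leaf, sprayed with formulated compound at 187 L/ha, and kept subirrigated to avoid wash-off. Fourteen days later, damage was rated visually on a 0–100% scale against untreated plants.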

[2] = system: Key Broadleaf Weed and Crop Species; test: Post-emergent Test II herbicidal activity (Table 5); assay type: in vivo; conditions: post-emergence, 336 h, post-emergent, 14 days after application; for pest or weed control at 70 g/ha: application rate 70 g ai/ha; for pest or weed control at 140 g/ha: application rate 140 g ai/ha
Outline: as §1

[3] = CYPES: yellow nutsedge (Cyperus esculentus), read-out: Visual Growth Reduction (%) 14 Days After Application, CYPES
[4] = DIGSA: crabgrass (Digitaria sanguinalis), read-out: Visual Growth Reduction (%) 14 Days After Application, DIGSA
[5] = ECHCG: barnyardgrass (Echinochloa crus-galli), read-out: Visual Growth Reduction (%) 14 Days After Application, ECHCG
[6] = ORYSA: rice (Oryza sativa), read-out: Visual Growth Reduction (%) 14 Days After Application, ORYSA
[7] = SETFA: giant foxtail (Setaria faberi), read-out: Visual Growth Reduction (%) 14 Days After Application, SETFA
[8] = SORVU: grain sorghum (Sorghum vulgare), read-out: Visual Growth Reduction (%) 14 Days After Application, SORVU
[9] = TRZSS (wheat, Triticum aestivum), read-out: Visual Growth Reduction (%) 14 Days After Application, TRZSS
[10] = ZEAMX: maize, corn (Zea mays), read-out: Visual Growth Reduction (%) 14 Days After Application, ZEAMX
[11] = ABUTH: velvetleaf (Abutilon theophrasti), read-out: Visual Growth Reduction (%) 14 Days After Application, ABUTH
[12] = AMARE: redroot pigweed (Amaranthus retroflexus), read-out: Visual Growth Reduction (%) 14 Days After Application, AMARE
[13] = BRSNN: oilseed-rape, canola (Brassica napus), read-out: Visual Growth Reduction (%) 14 Days After Application, BRSNN
[14] = CHEAL: lambsquarters (Chenopodium album), read-out: Visual Growth Reduction (%) 14 Days After Application, CHEAL
[15] = EPHHL: wild poinsettia (Euphorbia heterophylla), read-out: Visual Growth Reduction (%) 14 Days After Application, EPHHL
[16] = HELAN: sunflower (Helianthus annuus), read-out: Visual Growth Reduction (%) 14 Days After Application, HELAN
[17] = VIOTR: wild pansy (Viola tricolor), read-out: Visual Growth Reduction (%) 14 Days After Application, VIOTR

COc1c(N)nc(-c2cc(F)c(C(F)F)cc2F)nc1C(=O)O [Compound 203]
143.7 to 145.5 °C: melting point
45 to 59%: pest or weed control at 70 g/ha [2, 12] | pest or weed control at 140 g/ha [2, 13]
30 to 44%: pest or weed control at 70 g/ha [2, 11] | pest or weed control at 140 g/ha [2, 11] | pest or weed control at 70 g/ha [2, 13] | pest or weed control at 140 g/ha [2, 17]
85 to 94%: pest or weed control at 70 g/ha [2, 14]
75 to 84%: pest or weed control at 140 g/ha [1, 3] | pest or weed control at 140 g/ha [1, 7] | pest or weed control at 140 g/ha [2, 16]
95 to 100%: pest or weed control at 140 g/ha [2, 12] | pest or weed control at 140 g/ha [2, 14] | pest or weed control at 70 g/ha [2, 15] | pest or weed control at 140 g/ha [2, 15]
0 to 29%: pest or weed control at 70 g/ha [1, 3] | pest or weed control at 70 g/ha [1, 4] | pest or weed control at 140 g/ha [1, 4] | pest or weed control at 70 g/ha [1, 5] | pest or weed control at 140 g/ha [1, 5] | pest or weed control at 70 g/ha [1, 6] | pest or weed control at 140 g/ha [1, 6] | pest or weed control at 70 g/ha [1, 7] | pest or weed control at 70 g/ha [1, 8] | pest or weed control at 140 g/ha [1, 8] | pest or weed control at 70 g/ha [1, 9] | pest or weed control at 140 g/ha [1, 9] | pest or weed control at 70 g/ha [1, 10] | pest or weed control at 140 g/ha [1, 10] | pest or weed control at 70 g/ha [2, 17]
60 to 74%: pest or weed control at 70 g/ha [2, 16]
